In patent publication US12459922B2 (Gilead Sciences, Inc., priority 2022, dated 2025):

These compounds were tested on endogenous cellular STAT1 (phosphorylated at Tyr701) in NCI-H1373 cells (assay: Phospho-STAT1 (Tyr701) LANCE Ultra TR-FRET Detection Assay). Conditions: Homo sapiens, NCI-H1373, 48 h, phospho-STAT1 (Tyr701) induction, read-out: NH1373 pSTAT1 EC50.
Format: cell-based
Procedure: Phospho-STAT1 (Tyr701 LANCE Ultra TR-FRET Detection Assay
d. LANCE Ultra phospho-STAT1 (Tyr701) kits are designed for the detection of phosphorylated STAT1 in cell lysates using a simple, homogeneous LANCE Ultra sandwich assay (Cat. #TRF4028M). This assay is intended for assessing compound induction of endogenous levels of cellular STAT1 (phosphorylated at Tyr701) in NCI-H1373 cells. The NCI-H1373 cells are cultured in RPMI 1640 media containing 10% heat inactivated FBS, GlutaMAX, 1% Penicillin-Streptomycin. An Echo acoustic liquid handler is used to transfer 60 nanoliters of compound dilutions using the Echo Qualified, 384-well polypropylene microplate clear flat bottom source plates into a Greiner (#781080) cell culture microplate. NCI-H1373 cells are seeded into these compound-spotted culture plates at 30,000 cells/well in a 60 uL volume in growth media. The plates are incubated in a 5% CO2 humidified incubator at 37° C. for 48 hours. […] After spinning the plate down at 300 rpm for 1 min, the plate is read on an EnVision plate reader set up for Eu3+ Cryptate and fluorescence emission is measured at two different wavelengths (665 nm and 620 nm). The HTRF ratio is then calculated […] for each well to determine the amount of pSTAT1 in the cell lysate, and the data is then normalized to 10 uM GS-1154611 positive and DMSO negative controls.
`Nc1nc(-c2cc3ccn(C[C@H]4CCC[C@H](Nc5cn[nH]c(=O)c5C(F)(F)F)C4)c(=O)c3cc2F)ncc1C(F)(F)F` [Example 227, 6-(4-amino-5-(trifluoromethyl)pyrimidin-2-yl)-7-fluoro-2-(((1S,3S)-3-((6-oxo-5-(trifluoromethyl)-1,6-dihydropyridazin-4-yl)amino)cyclohexyl)methyl)isoquinolin-1(2H)-one] showed an EC50 of 15.7 nM.
In the case of `C[C@@H](CCCn1cnc2cc(-c3ncc(C(F)F)c(N)n3)c(F)cc2c1=O)Nc1cn[nH]c(=O)c1C(F)(F)F` [Example 108, 7-[4-amino-5-(difluoromethyl)pyrimidin-2-yl]-6-fluoro-3-[(4S)-4-[[6-oxo-5-(trifluoromethyl)-1H-pyridazin-4-yl]amino]pentyl]quinazolin-4-one], the EC50 is reported as 29.4 nM.
For `O=c1[nH]ncc(N[C@H](CCCn2cnc3cc(-c4ncc(C(F)F)cn4)c(F)cc3c2=O)C2CC2)c1C(F)(F)F` [Example 468, 3-[(4R)-4-cyclopropyl-4-[[6-oxo-5-(trifluoromethyl)-1H-pyridazin-4-yl]amino]butyl]-7-[5-(difluoromethyl)pyrimidin-2-yl]-6-fluoro-quinazolin-4-one], the EC50 was 42.5 nM.
With `C[C@@H](CCCn1cnc2cc(-c3cnc(Cl)c(N)n3)c(F)cc2c1=O)Nc1cn[nH]c(=O)c1C(F)(F)F` [Example 352, (S)-7-(6-amino-5-chloropyrazin-2-yl)-6-fluoro-3-(4-((6-oxo-5-(trifluoromethyl)-1,6-dihydropyridazin-4-yl)amino)pentyl)quinazolin-4(3H)-one] the EC50 was 64.4 nM.
In the case of `O=c1[nH]ncc(N[C@H](CCCn2ccc3nc(-c4ccc(C(F)(F)F)cn4)ccc3c2=O)COC(F)F)c1C(F)(F)F` [Example 386, (R)-6-(5-(difluoromethoxy)-4-((6-oxo-5-(trifluoromethyl)-1,6-dihydropyridazin-4-yl)amino)pentyl)-2-(5-(trifluoromethyl)pyridin-2-yl)-1,6-naphthyridin-5(6H)-one], the EC50 is reported as 2.96 nM.
`O=c1[nH]ncc(O[C@H]2CCC[C@@H](Cn3ccc4cc(-c5ncc(C(F)(F)F)cn5)c(F)cc4c3=O)C2)c1C(F)(F)F` [Example 454, 7-fluoro-2-(((1R,3S)-3-((6-oxo-5-(trifluoromethyl)-1,6-dihydropyridazin-4-yl)oxy)cyclohexyl)methyl)-6-(5-(trifluoromethyl)pyrimidin-2-yl)isoquinolin-1(2H)-one] was tested, and the EC50 was 7.48 nM.
In the case of `CC[C@@H](CCCn1cnc2cc(-c3ccc(C(F)F)cn3)c(F)cc2c1=O)Nc1cn[nH]c(=O)c1C(F)(F)F` [Example 338, (S)-7-(5-(difluoromethyl)pyridin-2-yl)-6-fluoro-3-(4-((6-oxo-5-(trifluoromethyl)-1,6-dihydropyridazin-4-yl)amino)hexyl)quinazolin-4(3H)-one], the EC50 is reported as 218 nM.
`CC[C@@H](CCCn1ccc2cc(-c3ncc(OC)c(N)n3)c(F)cc2c1=O)Nc1cn[nH]c(=O)c1C(F)(F)F` [Example 343, (S)-6-(4-amino-5-methoxypyrimidin-2-yl)-7-fluoro-2-(4-((6-oxo-5-(trifluoromethyl)-1,6-dihydropyridazin-4-yl)amino)hexyl)isoquinolin-1(2H)-one] was tested, and the EC50 was 3.56 nM.
Compound `O=c1[nH]ncc(N[C@H](CCCn2ccc3cc(-c4ccc(C(F)F)cn4)c(F)c(F)c3c2=O)COC(F)F)c1C(F)(F)F` [Example 406, (R)-2-(5-(difluoromethoxy)-4-((6-oxo-5-(trifluoromethyl)-1,6-dihydropyridazin-4-yl)amino)pentyl)-6-(5-(difluoromethyl)pyridin-2-yl)-7,8-difluoroisoquinolin-1(2H)-one] has an EC50 of 1.72 nM.
Work on `C[C@@H](CCCn1ccc2cc(-c3cn4ccnc4c(N)n3)c(F)cc2c1=O)Nc1cn[nH]c(=O)c1C(F)(F)F` [Example 332, (S)-6-(8-aminoimidazo[1,2-a]pyrazin-6-yl)-7-fluoro-2-(4-((6-oxo-5-(trifluoromethyl)-1,6-dihydropyridazin-4-yl)amino)pentyl)isoquinolin-1(2H)-one] yielded an EC50 of 8.92 nM.
